Measurements taken from publication PMC7595621, “Quorum sensing N-Acyl homoserine lactones are a new class of anti-schistosomal” (PLoS Neglected Tropical Diseases, 2020).
Like-named read-outs stand apart in the source and are kept apart here.

How the values were obtained:
S. mansoni schistosomula = test: Screening of S. mansoni schistosomula (Roboworm, motility and phenotype); assay type: cell-based, Schistosoma mansoni; conditions: for EC50: Schistosoma mansoni; for Selectivity index, schistosomula motility: HepG2 CC50 / schistosomula motility EC50; for Selectivity index, schistosomula phenotype: HepG2 CC50 / schistosomula phenotype EC50
Protocol: Biomphalaria glabrata (NMRI and the previously described pigmented strains) snails infected with S. mansoni (Puerto Rican strain) were shed for 2 hrs under light at 26 °C. Cercariae were collected, mechanically transformed into schistosomula and subsequently prepared for high throughput screening (HTS) on the Roboworm platform as previously described. Schistosomula were cultured in Basch Media (composed of BME media, 10% M169 media, 0.5x MEM vitamins, 10% Schneider’s insect media, 15.6mM Hepes, 5% heat inactivated FBS, 2x Antibiotic/anti-mycotic (Sigma-Aldrich, UK) solution (final concentrations shown)).
EC50 values were calculated from the titrated concentrations by non-linear regression, after log transformation of concentrations and data normalization using GraphPad Prism 7.02.
Fig 2 Anti-schistosomula activity of the eight analogues compared to parent compound 1. […] Test plates were incubated at 37°C for 72 hrs in an atmosphere containing 5% CO2. At 72hrs, schistosomula were scored using the Roboworm platform for both motility (A) and phenotype (B). Any compound that induced a score of below -0.35 for motility (A) and -0.15 for phenotype (B) were considered a hit. Black squares indicate the most positive effect on motility or phenotype; grey scale from dark grey to lighter shades of grey indicates a progressive reduced compound efficacy; white squares indicate no effect on either phenotype or motility. Z´ values for this screen was 0.41741 for motility and 0.57275 for phenotype. (C) Phenotypes of schistosomula when treated with 10μM of each of the test compounds and controls.
Supplementary file pntd.0008630.s003.tif: S1 Fig Initial schistosomula screens of the 14 compounds and their intermediate analogues. […] Test plates were incubated at 37°C for 72 hrs in an atmosphere containing 5% CO2. At 72hrs, schistosomula were scored using the Roboworm platform for both motility and phenotype as previously described. A) Of the 14 compounds evaluated, two fell within the hit region. Z’ scores for motility and phenotype were 0.40079 and 0.56846 respectively. […] Z´ scores for motility and phenotype were 0.37864 and 0.47882 respectively. *Average EC50 value across motility and phenotype is presented for each compound. (TIF) Click here for additional data file.

[1] = test system: adult S. mansoni worm pairs; test: Screening of adult S. mansoni blood flukes (7-week worms), WHO-TDR motility scoring; assay type: cell-based, Schistosoma mansoni; conditions: for EC50: 7-week worms, motility, 95% confidence interval; for EC50 / effect on adult worm motility/lethality: 72 hr; for effect on adult worm motility/lethality: highest dose 20 μM
Protocol: (§1) Adult S. mansoni parasites were recovered by hepatic portal vein perfusion from TO outbred mice (HsdOla:TO, Tuck-Ordinary, Envigo, UK) that were percutaneously infected seven weeks earlier with 180 cercariae. Three adult worm pairs per well, in duplicate, were transferred into 48 well plates (Fisher Scientific, Loughborough, UK) and cultured at 37 °C in an atmosphere containing 5% CO2 in DMEM (Gibco, Paisley, UK) containing 10% v/v HEPES, 10% v/v Foetal Bovine Serum (FBS), 0.7% v/v 200 mM L-Glutamine and 1X v/v penicillin-streptomycin. Worms were dosed with test compounds at 20 μM, 10 μM, 5 μM, 2.5 μM, 1.25 μM and 0.625 μM (in 0.2% DMSO) for 72 hr. Adult worms were scored manually at 72 hr using the WHO-TDR metric scoring system as described previously. Dose response curves and EC50 values were obtained by non-linear regression, after log transformation of concentrations and data normalization using GraphPad Prism 7.02. At 72 hr, the medium from each well was also collected, centrifuged at 350 x g for 2 min. Afterwards, the supernatant was removed, and the remaining egg pellet re-suspended in 10% v/v formalin. Eggs that were oval and contained a fully formed lateral spine were subsequently counted.
(§2) Fig 3 Adult schistosome motility and egg production are differentially affected by the nine N-acyl homoserine lactones. […] Parasite motility was evaluated for each sex and scored using the WHO-TDR scoring system (0 = Dead parasite, 4 = Normal/Healthy movement). B) Culture media were collected from some adult co-cultures at 72 hrs and eggs present in the media were counted. p values are indicated as follows: * <0.05, ** <0.01, *** <0.001.
Initially, these screens were conducted at 20 μM; any compounds that scored a 1 or 0 for motility at this primary concentration were further titrated until no further effect was observed. […] Similar to the schistosomula assays, the differences observed in adult parasite motility when treated with the (R)- and (S)- enantiomers of Compound 1 were striking. […] Estimated EC50s for male and female parasites for these two enantiomers were determined (Table 2), with Compound 5 ((R)- enantiomer) having greater activity than Compound 6 ((S)- enantiomer).

[2] = test system: adult S. mansoni worm pairs (egg production); test: In vitro egg production of adult S. mansoni worm pairs; assay type: cell-based, Schistosoma mansoni; conditions: 72 hr, compared to DMSO
Protocol: as §1, §2
As morbidity associated with schistosomiasis is caused by egg-induced granuloma formation in tissues and the subsequent development of fibrotic lesions around these granulomas, compound-mediated modulation of in vitro egg production (as a surrogate for the in vivo pathology initiator) was next assessed (Fig 3B). […] In comparison to the negative control DMSO, in which egg counts ranged from 300–594 (Average—408), all N-Acyl homoserine lactones affected fecundity.

[3] = Cell cytotoxicity assay (MTT); assay type: cell-based, human; conditions: human, HepG2 cells, MTT, 95% confidence interval, called EC50
Protocol: The cytotoxicity of each compound was assessed on human HepG2 cells as described previously [17]. Briefly, 2 x 10^4 cells/well were seeded in black walled 96-well microtiter plates (Fisher Scientific, Loughborough, UK) and incubated for 24 hr at 37°C in a humidified atmosphere containing 5% CO2. […] Following a further incubation for 24 hr, the MTT assay was performed as previously described [17, 27]. Dose response curves were obtained by non-linear regression, after log transformation of concentrations and data normalization using GraphPad Prism 7.02.

S. aureus ATCC 29213 = test: Broth microdilution MIC and IC50 determination, S. aureus; assay type: cell-based, Staphylococcus aureus; conditions: Staphylococcus aureus, ATCC29213, 24 h, 24 hr
Protocol: (§3) S. aureus ATCC 29213 and E. coli ATCC 25922 were cultured in Luria-Bertani (LB) medium at 37°C with aeration at 200 rpm for 24 hr, with all procedures performed in a biosafety level 2 (BSL2) cabinet. Stationary phase cultures were then used for minimum inhibitory concentration (MIC) determination using the broth microdilution method, in fresh LB medium, in a 96-well plate. All compounds were tested in triplicate using an initial bacterial concentration of 5.0 × 10^5 colony forming units (CFU)/mL at a final concentration of 125 mg/L (5% and 2.5% v/v methanol). Compounds with no visible growth at 125 mg/L were further evaluated with progressing dilutions. […] Dilutions were repeated in three independent experiments where the optical density (OD600) was measured in a Hidex plate spectrophotometer and absorbance data used for the calculation of an IC50 value. The IC50 value was obtained from a dose response titration (125–0.09 mg/L). Dose response curves were obtained by non-linear regression, after log transformation of concentrations and data normalization using GraphPad Prism 7.02.
(§4) As Compound 1 was structurally similar to N-acyl homoserine lactones, a compound class involved in bacterial quorum sensing, we decided to assess its antimicrobial activity and determine if enantiomer separation or lactone ring substitution would change this activity.

E. coli ATCC 25922 = test: Broth microdilution MIC and IC50 determination, E. coli; assay type: cell-based; conditions: Escherichia coli, ATCC25922, 24 h, 24 hr
Protocol: as §3, §4

[4] = test system: juvenile S. mansoni worms; test: Propidium iodide (PI) staining of juvenile S. mansoni worms; assay type: cell-based, Schistosoma mansoni; conditions: 15 μM, 72 hrs
Protocol: Juvenile S. mansoni parasites were recovered via hepatic portal vein perfusion from TO outbred mice (HsdOla:TO, Tuck-Ordinary, Envigo, UK) that were infected percutaneously three weeks earlier with 4000 cercariae. Preparation and centrifugation of juvenile worms have been described previously. […] After motility quantification, 2 μg/mL of PI was added to each well and the plate returned to 37°C, 5% CO2 for 15 minutes. Each well was subsequently imaged on the Roboworm platform using brightfield and fluorescent microscopy (excitation wavelength = 580 nm; emission wavelength = 604 nm). The number of PI positive vs PI negative juvenile worms were cross-checked with the motility scores obtained by our scoring matrix, and the data reported as percentage of PI positive across all parasites within the well. EC50 values were calculated from the motility scores obtained from the dose response titration (as detailed above) and dose response curves were obtained by non-linear regression, after log transformation of concentrations and data normalization using GraphPad Prism 7.02.
Three week juvenile schistosomes, incubated with compounds (1), (3) or controls for 72 hrs, were subsequently cultured with PI at a final concentration of 2 μg/mL for 15 minutes at 37 °C in an environment containing 5% CO2. PI positive parasites (dead) were counted and the percent live vs dead in each well is indicated. A) Quantification of compound (1) mediated juvenile death. B) Quantification of compound (3) mediated juvenile death.

[5] = 72 hrs, 95% confidence interval, read-out: SCHISTOSOMULA EC50 Motility
[6] = 72 hrs, 95% confidence interval, read-out: SCHISTOSOMULA EC50 Phenotype
[7] = Schistosoma mansoni, read-out: ADULT WORM EC50 Female
[8] = Schistosoma mansoni, read-out: ADULT WORM EC50 Male

Row | Structure (SMILES) | EC50 (S. mansoni schistosomula; [5]) | EC50 (S. mansoni schistosomula; [6]) | EC50 [1, 7] | effect on adult worm motility/lethality [1] | CC50 at 24 h [3] | EC50 [1, 8] | other results
1 | O=C(CBr)N[C@H]1CCOC1=O [Compound 6, (S)-2-bromo-N-(2-oxotetrahydrofuran-3-yl)acetamide] | > 10 µM | > 10 µM | > 20 µM | did not have this effect | > 100 µM | – | anti-schistosomula activity (phenotype and motility) (S. mansoni schistosomula; titration 10 to 0.625 μM, 72 hrs): no anti-schistosomula activity was observed; Selectivity index, adult worm male ([1]; HepG2 CC50 / adult male EC50): 6.3; effect on egg production (fecundity) [2]: reduced egg production; MIC (S. aureus ATCC 29213; no visible growth): > 125 µg/mL; MIC (S. aureus ATCC 29213; value in square brackets): > 563 µM; MIC (E. coli ATCC 25922; no visible growth): > 125 µg/mL; MIC (E. coli ATCC 25922; value in square brackets): > 563 µM
2 | CC(Cl)C(=O)NC1CCOC1=O (centres unmarked) [Compound 9, 2-chloro-N-(2-oxotetrahydrofuran-3-yl)propanamide] | – | – | – | No lethality/motility defects were observed | – | – | –
3 | CC(Br)C(=O)NC1CCOC1=O (centres unmarked) [Compound 2, 2-bromo-N-(2-oxotetrahydrofuran-3-yl)propanamide] | > 10 µM | > 10 µM | > 20 µM | no activity | > 200 µM | > 20 µM | –
4 | O[C@H]([C@H](O)COC(c1ccccc1)(c1ccccc1)c1ccccc1)[C@@H](O)COC(c1ccccc1)(c1ccccc1)c1ccccc1 [Compound E, (2R,3s,4S)-1,5-bis(trityloxy)pentane-2,3,4-triol] | – | – | – | – | – | – | effect on schistosomula motility and phenotype metrics in initial screen (S. mansoni schistosomula; 10 μM, 72 hrs): negatively affected both schistosomula motility and phenotype metrics; EC50 (S. mansoni schistosomula; 72 h, read-out: average EC50 for phenotype and motility, schistosomula): 5.6 µM
5 | CC(Br)C(=O)NC1CCSC1=O (centres unmarked) [Compound 4, 2-bromo-N-(2-oxotetrahydrothiophen-3-yl)propanamide] | – | – | 18.4 µM | only demonstrated lethality at the highest concentration | – | 10.5 µM | Selectivity index, schistosomula motility (S. mansoni schistosomula): 15.4; Selectivity index, schistosomula phenotype (S. mansoni schistosomula): 14.4; EC50 ([1]; read-out: ADULT WORM EC50 Female): > 10 µM; EC50 ([1]; read-out: ADULT WORM EC50 Male): > 10 µM
6 | O=C(CBr)N[C@@H]1CCOC1=O [Compound 5, (R)-2-bromo-N-(2-oxotetrahydrofuran-3-yl)acetamide] | 3.1 µM | 4 µM | > 10 µM | complete immobility | 50.6 µM | > 10 µM | Selectivity index, schistosomula motility (S. mansoni schistosomula): 16.3; Selectivity index, schistosomula phenotype (S. mansoni schistosomula): 12.7; effect on egg production (fecundity) [2]: reduced egg production; MIC (S. aureus ATCC 29213; no visible growth): 125 µg/mL; MIC (S. aureus ATCC 29213; value in square brackets): 563 µM; MIC (E. coli ATCC 25922; no visible growth): 125 µg/mL; MIC (E. coli ATCC 25922; value in square brackets): 563 µM
7 | O=C(CCl)NC1CCSC1=O (centres unmarked) [Compound 8, 2-chloro-N-(2-oxotetrahydrothiophen-3-yl)acetamide] | – | – | – | No lethality/motility defects were observed | – | – | –
8 | O=C(CCl)NC1CCOC1=O (centres unmarked) [Compound 7, 2-chloro-N-(2-oxotetrahydrofuran-3-yl)acetamide] | – | – | – | No lethality/motility defects were observed | – | – | –
9 | CC(=O)OC[C@H]1O[C@@H]([S-])[C@H](OC(C)=O)[C@@H](OC(C)=O)[C@@H]1OC(C)=O.CCP(CC)CC.[Au+] [auranofin, reference compound] | – | – | – | – | – | – | Percent P.I positive parasites [4]: 100%
